≈ marks a conversion by molar mass, not a printed value. Where two headings read alike, the source gives them in different places. Bridge positions count the residues as written; N and C are the ends. Ends that are not written are not given here. Peptide text beside a SMILES is read from it. I, II: the chains in the order shown.
Columns and labels:
Format in all cases: cell-based
[1] = system: P. aeruginosa (ATCC No. 9027); conditions: ATCC No. 9027, 18 h
Experimental: (§1) Microbes were re-constituted from their dried pellets obtained from ATCC according to the recommended protocols. Bacterial culture was done in tryptic soy broth at 37° C., while yeast was cultured in yeast mould broth at room temperature, under constant shaking at 100 rpm. Briefly, microbial suspension was first adjusted to contain ˜3×10^8 CFU/mL, by adjusting its 600 nm absorbance to be equivalent to that of the standard McFarland 1 reference. The suspension was then diluted to contain ˜3×10^6 CFU/mL. Under this condition, the O.D. reading was approximately 0.05-0.06 for bacterial cultures, and 0.03-0.04 for yeast cultures. Equal volume (100 μL) of the microbial suspension and the peptide solutions was mixed in a 96-well plate, and the microbial growth was monitored by measuring the O.D. reading at 0 and 18 hours.

[2] = system: C. albicans (ATCC No. 10231); conditions: ATCC No. 10231, 18 h
Experimental: as §1

[3] = system: E. aerogenes (ATCC No. 13048); conditions: ATCC No. 13048, 18 h
Experimental: as §1

[4] = system: S. aureus (ATCC No. 29737); conditions: ATCC No. 29737, 18 h
Experimental: as §1

[5] = system: B. subtilis (ATCC No. 23857); conditions: ATCC No. 23857, 18 h
Experimental: as §1

[6] = system: E. coli (ATCC No. 25922); conditions: ATCC No. 25922, 18 h
Experimental: as §1

[7] = system: human red blood cells (hRBC)
Experimental: The peptides' hemolysis was tested in human red blood cells (hRBC). hRBCs were diluted 25× to achieve 4% concentration (v %) in phosphate-buffered saline (PBS, pH 7.4). Upon dilution, the blood suspension was treated with equal volume of (LLKK)4 (SEQ ID NO: 8), [(LLKK)2]2, or [(LLKK)2]4 peptide solution in PBS to reach final peptide concentrations of 0-500 mg/L. The treatment was performed inside a 37° C. incubator for 1 hour, after which the mixture was centrifuged at 1000 g for 5 mins to remove the non-hemolysed blood cells. The supernatant (100 μL) was transferred into a 96-well plate, and measured spectrophotometrically for its absorbance at 567 nm using a microplate reader (TECAN, Switzerland)^[5]. PBS and 0.1% Triton-X were used as negative and positive controls respectively. Hemolysis level was calculated according to the following formula: % Hemolytic=(Absorbance for Peptide treatment−Absorbance for PBS treatment)/(Absorbance for Triton treatment−Absorbance for PBS treatment)×100% Minimum Inhibitory Concentration (MIC)

[8] = system: E. coli; conditions: 2
Experimental: (§2) E. coli and S. aureus were treated at MIC and 2×MIC concentrations with [(LLKK)2]4 peptide. At various time periods (0, 0.5, 1, 2, 5, 8 and 18 hours), microbial suspensions were diluted at 3 different dilutions and plated on 1.5% LB agar plates. Microbial colonies were formed and counted after 24 hours of incubation (for bacteria) or 48 hours of incubation (for yeast).

[9] = system: S. aureus; conditions: 2
Experimental: as §2

[10] = system: B. subtilis
Experimental: (§3) Microbial cells were firstly re-constituted from its lyophilized form according to the manufacturer's protocol. Bacterial cells were cultured in tryptic soy broth (TSB) at 37° C., and yeast cells were cultured in yeast mould broth (YMB) at room temperature under constant shaking at 100 rpm. Broth containing an antimicrobial peptide was prepared at various concentrations (0.98, 1.95, 3.90, 7.81, 15.63, 31.25, 62.5, 125, 250, 500 mg/L) and transferred into a 96-well tissue culture plate (100 μL/well). Microorganism was first inoculated overnight to enter its log growth-phase. An equal volume of microorganism solution (100 μL) was added into each well of the 96-well plate containing the antimicrobial peptide. Prior to this mixing, the concentration of microorganism solution was adjusted to give an initial optical density (O.D.) reading of 0.1-0.2 at 600 nm wavelength. The growth of the microorganism was observed upon introducing the antimicrobial peptide by measuring the O.D. readings at 2 hour intervals for up to 8 hours. […] Broth containing microbial cells was used as the negative control, and each test was carried out in 6 replicates. The standard deviations of the 6 readings were reported as the error bars.

[11] = system: P. aeruginosa
Experimental: as §3

[12] = system: C. albicans
Experimental: as §3

[13] = system: E. coli
Experimental: as §3

[14] = system: rat red blood cells; assay: Hemolytic activity test
Experimental: Peptides were obtained from GL Biochem (Shanghai, China), and their fidelity was further confirmed via matrix-assisted laser desorption/ionization time-of-flight mass spectroscopy (MALDI-TOF MS, Model Autoflex II, Bruker Daltonics Inc., U.S.A.), using α-cyano-4-hydroxycinnamic acid as matrix. The purity of the peptides was also tested to be more than 95% with analytical reverse phase (RP)-HPLC. α-Cyano-4-hydroxycinnamic acid (HCCA) was purchased from Sigma-Aldrich (Singapore) and used in saturated acetonitrile/water (1:1 volume ratio) after being re-crystallized. Sodium dodecyl sulphate (SDS) micelle solution (10% w/v in DI water) was obtained from 1st Base (Malaysia) and used upon dilution to the desirable concentration range. Tryptic soy broth (TSB) powder and yeast mould broth (YMB) powder were purchased from BD Diagnostics (Singapore) and used to prepare the microbial broths according to the manufacturer's instructions. Phosphate-buffered saline solution at 10× concentration was purchased from 1st Base (Malaysia) and used after dilution to the desired concentration. Ethanol (analytical grade, 99%) and glutaraldehyde (synthetic grade, 50% in H2O) were purchased from Sigma Aldrich (Singapore) and used as received. […] Red blood cells used in the experiments were obtained from rats maintained at the Animal Handling Units of the Biomedical Research Centers (Singapore). Human peripheral blood mononuclear cells (PBMCs) were extracted from healthy blood donors and maintained with RPMI medium supplemented with 10% lowendotoxin fetal bovine serum (FBS) and 1% penicillin-streptomycin. Granulocyte macrophage-colony stimulating factor (GM-CSF) and lipopolysaccharide were purchased from Sigma-Aldrich and used as received.
Fresh red blood cells were washed with PBS for three times, and were subjected to 25 times dilution with PBS to reach a concentration of approximately 4% (in volume) of the blood cells. The red blood cell suspension (100 μL) was placed into a 96-well cell culture plate and mixed with 100 μL of the antimicrobial peptide solution in PBS at concentrations of 0.98, 1.95, 3.90, 7.81, 15.63, 31.25, 62.5, 125, 250, 500 mg/L. The mixture was then incubated at 37° C. for 1 hour to allow for the hemolysis process to take place. At the end of incubation time, the non-hemolysed red blood cells were separated by centrifugation at 13000 g for 5 minutes. Aliquots (100 μL) of the supernatant were transferred into a new 96-well plate, and the hemoglobin release was measured by checking the UV-absorbance of the samples at 576 nm using a microplate reader (TECAN, Switzerland). Two controls were provided in this assay: an untreated red blood cell suspension in PBS was used as the negative control, and a solution containing red blood cells lysed with 0.1% Triton-X was used as the positive control. Each assay was performed in 6 replicates, and the data were expressed as means and standard deviations of the 6 replicates. Percentage of hemolysis was calculated using the following formula: Hemolysis (%)=[(O.D.576 nm of the treated sample−O.D.576 nm of the negative control)/(O.D.576 nm of positive control−O.D.576 nm of negative control)]×100%. Field Emission-Scanning Electron Microscopy (FE-SEM) Analysis of Bacterial Cells

[15] = 8 hours incubation, tryptic soy broth, 37° C.
[16] = 8 hours incubation, yeast mould broth, room temperature
[17] = rat red blood cells, 37° C., 1 hour

CC(C)C[C@H](NC(=O)[C@H](CC(C)C)NC(=O)[C@H](CCCCN)NC(=O)[C@H](CCCCN)NC(=O)[C@H](CC(C)C)NC(=O)[C@@H](N)CC(C)C)C(=O)N[C@@H](CCCCN)C(=O)N[C@@H](CCCCN)C(=O)NCCCC[C@H](NC(=O)[C@H](CCCCN)NC(=O)[C@H](CCCCN)NC(=O)[C@H](CC(C)C)NC(=O)[C@H](CC(C)C)NC(=O)[C@H](CCCCN)NC(=O)[C@H](CCCCN)NC(=O)[C@H](CC(C)C)NC(=O)[C@@H](N)CC(C)C)C(=O)N[C@@H](CS)C(N)=O [[(LLKK)2]2, [LLKKLLKK]2K*C—CONH2] (I: H-LLKKLLKKKC-NH2 / II: H-LLKKLLKK; amide I:9-II:C)
MIC P. aeruginosa [1]: 8 µg/mL (≈ 3.67 µM)
MIC C. albicans [2]: 63 µg/mL (≈ 28.9 µM)
MIC E. aerogenes [3]: 125 µg/mL (≈ 57.4 µM)
MIC S. aureus [4]: >500 µg/mL
MIC B. subtilis [5]: 8 µg/mL (≈ 3.67 µM)
MIC E. coli [6]: 31 µg/mL (≈ 14.2 µM)
hemolysis at 500 mg/L ([7]; red cells of human, 500): ~18%
HC50 ([7]; red cells of human, 1 h): >500 mg/L

CC(C)C[C@H](NC(=O)[C@H](CC(C)C)NC(=O)[C@H](CCCCN)NC(=O)[C@H](CCCCN)NC(=O)[C@H](CC(C)C)NC(=O)[C@@H](N)CC(C)C)C(=O)N[C@@H](CCCCN)C(=O)N[C@@H](CCCCN)C(=O)NCCCC[C@H](NC(=O)[C@H](CCCCN)NC(=O)[C@H](CCCCN)NC(=O)[C@H](CC(C)C)NC(=O)[C@H](CC(C)C)NC(=O)[C@H](CCCCN)NC(=O)[C@H](CCCCN)NC(=O)[C@H](CC(C)C)NC(=O)[C@@H](N)CC(C)C)C(=O)N[C@@H](CSSC[C@H](NC(=O)[C@H](CCCCNC(=O)[C@H](CCCCN)NC(=O)[C@H](CCCCN)NC(=O)[C@H](CC(C)C)NC(=O)[C@H](CC(C)C)NC(=O)[C@H](CCCCN)NC(=O)[C@H](CCCCN)NC(=O)[C@H](CC(C)C)NC(=O)[C@@H](N)CC(C)C)NC(=O)[C@H](CCCCN)NC(=O)[C@H](CCCCN)NC(=O)[C@H](CC(C)C)NC(=O)[C@H](CC(C)C)NC(=O)[C@H](CCCCN)NC(=O)[C@H](CCCCN)NC(=O)[C@H](CC(C)C)NC(=O)[C@@H](N)CC(C)C)C(N)=O)C(N)=O [[(LLKK)2]4, [LLKKLLKK]2K*C—S—S—CK*[KKLLKKLL]2] (I: H-LLKKLLKKKC-NH2 / II: H-LLKKLLKKKC-NH2 / III: H-LLKKLLKK / IV: H-LLKKLLKK; amide I:9-III:C, II:9-IV:C; disulfide I:10-II:10)
MIC P. aeruginosa [1]: 8 µg/mL (≈ 1.84 µM)
MIC C. albicans [2]: 125 µg/mL (≈ 28.7 µM)
MIC E. aerogenes [3]: 63 µg/mL (≈ 14.5 µM)
MIC S. aureus [4]: 400 µg/mL (≈ 91.8 µM)
MIC B. subtilis [5]: 16 µg/mL (≈ 3.67 µM)
hemolytic activity towards human red blood cells, in words [7]: only hemolytic at an acceptable level
HC50 ([7]; red cells of human, 1 h): >500 mg/L
cells killed after 1 hour ([8]; 1 h): more than 50%
cells killed after 8 hours ([8]; 8 h): more than 99.99%
cells killed after 1 hour ([9]; 1 h): more than 50%
cells killed after 8 hours ([9]; 8 h): more than 99.99%

LLKKLLKKLLKKC-NH2 [LLKKLLKKLLKKC-NH2]
MIC B. subtilis [10, 15]: 16 µg/mL
MIC P. aeruginosa ([11]; 8 hours incubation): 16 µg/mL
MIC C. albicans [12, 16]: 63 µg/mL
MIC E. coli [13, 15]: 150 µg/mL
HC50 (50% hemolytic concentration) [14, 17]: ~402 mg/L

LLKKLLKKLLKKLLKK-NH2 [(LLKK)4, LLKKLLKKLLKKLLKK-NH2]
MIC P. aeruginosa [1]: 6.3 µg/mL
MIC C. albicans [2]: >50 µg/mL
MIC E. aerogenes [3]: 25 µg/mL
MIC S. aureus [4]: >50 µg/mL
MIC B. subtilis [5]: 6.3 µg/mL
MIC E. coli [6]: 12.5 µg/mL
HC50 [7]: ~37.5 mg/L
hemolytic activity towards human red blood cells, in words [7]: significant hemolysis at concentrations around its MICs
MIC B. subtilis ([10]; 8 h): 10 µg/mL
MIC C. albicans ([12]; 8 h): >50 µg/mL
MIC E. coli ([13]; 8 h): >50 µg/mL
hemolysis at the MIC against B. subtilis [14]: ~30%
HC50 (50% hemolytic concentration) ([14]; red cells of rat, 1 h): ~24 mg/L

MLLKKLLKKLLKKM-NH2 [MLLKKLLKKLLKKM-NH2]
MIC B. subtilis [10, 15]: 31 µg/mL
MIC P. aeruginosa ([11]; 8 hours incubation): 31 µg/mL
MIC C. albicans [12, 16]: 125 µg/mL
MIC E. coli [13, 15]: 250 µg/mL
HC50 (50% hemolytic concentration) [14, 17]: ~158 mg/L

MLLKKLLKKM-NH2 [MLLKKLLKKM-NH2]
MIC B. subtilis ([10]; 8 h): 125 µg/mL
MIC P. aeruginosa ([11]; 8 h): 500 µg/mL
MIC C. albicans ([12]; 8 h): 500 µg/mL
MIC E. coli ([13]; 8 h): >500 µg/mL
HC50 (50% hemolytic concentration) ([14]; red cells of rat, 1 h): >2500 mg/L
